According to patent US8716287B2, “Pharmaceutical compounds” (Sentinel Oncology Limited, priority 2010, dated 2014):
“Also recorded” adds a separate entry of the source. Where a name gives a salt, the structure may show the parent alone. Read-outs that look alike come from different tables or passages of the source.

Legend:
[1] = system: MOLM-13 cells; test: Inhibition of cell growth in MOLM-13 cells (Alamar blue); format: cell-based; details: Homo sapiens, 72 h incubation
Method: (§1) Studies were carried out to test the effect of compounds on the inhibition of cell growth in MOLM-13 and MV4-11 cells.
(§2) The following protocol was used:
(§3) (a) Cells were seeded in 96-well plates at cell densities of 2500/well (MOLM-13) and 10,000/well (MV4-11). Cells were then incubated overnight prior to addition of compound or vehicle control.
(§4) (b) Test compounds were prepared from 10 mM DMSO stocks to give a final concentration range of 10 μM, 3 μM, 1 μM, 0.3 μM, 0.1 μM, […], […] and vehicle control. The DMSO content was constant at 0.1%.
(§5) (c) Test compounds were incubated with the cells for 72 h at 37° C. 5% CO2 in a humidified atmosphere.
(§6) (d) Alamar blue 10% (v/v) was then added and incubated for a further 4 h, and fluorescent product detected using the BMG FLUOstar plate reader.
(§7) (e) Media only background values were subtracted and the data analysed using a 4-parameter logistic equation in GraphPad Prism.
(§8) From the results obtained by following the above protocol, the IC50 values against MOLM-13 and MV4-11 cells of the compounds of Examples 20, 21, 22, 25, 33, 35, 37, 38, 44, 48, 49, 50, 51, 53, 54 and 55 were determined.

[2] = system: HT29 cells; test: Sensitisation of HT29 cells to SN38 (Alamar blue cell growth); format: cell-based, human; details: HT29 cells
Method: Studies were carried out to test the sensitising effect of compounds of the invention on the ability of the DNA damaging compound 7-ethyl-10-hydroxycamptothecin (SN38), an active metabolite of the anti-cancer drug irinotecan, to inhibit cell growth in HT29 cells.
as §2
(a) HT29 cells were seeded in 96-well plates at a concentration of 3000 cells per well and allowed to adhere overnight prior to addition of compound or vehicle control.
(b) SN38 was prepared from a 10 mM DMSO stock to give a final concentration range of 1 μM, 300 nM, 100 nM, 30 nM, 10 nM, 3 nM, 1 nM, and vehicle control.
(c) Test compounds were prepared from 10 mM DMSO stocks to typically give a final concentration range of 3 μM, 1 μM, 0.3 μM. 0.1 μM, 0.03 μM and vehicle control. The final DMSO content was 0.4%.
(d) Test compounds were incubated with the cells for 72 h at 37° C. 5% CO2 in a humidified atmosphere.
(e) Alamar blue 10% (v/v) was then added and incubated for a further 6 h, and fluorescent product detected using the BMG FLUOstar plate reader.
(f) Data were analysed using a 4-parameter logistic equation in GraphPad Prism.
Sensitisation is determined by the enhancement in IC50 of SN38 by the addition of the Chk-1 kinase inhibitor. In the protocol described above, the IC50 for SN-38 is determined the presence of varying doses of the Chk-1 inhibitor. The fold shift represents a decrease in IC50 for SN-38 at a dose of Chk-1 inhibitor that has no effect by itself.

[3] = system: MV4-11 cells; test: Inhibition of cell growth in MV4-11 cells (Alamar blue); format: cell-based; details: Homo sapiens, 72 h incubation
Method: as §1, §2, §3, §4, §5, §6, §7, §8

[4] = target: Chk-1 kinase (Homo sapiens (Human), UniProt O14757); test: Chk-1 kinase inhibiting activity (33P-ATP filter assay, CHKtide substrate); format: biochemical
Method: The compounds of the invention were tested for activity against Chk-1 kinase using the materials and protocols set out below.
Base Reaction buffer: 20 mM Hepes (pH 7.5), 10 mM MgCl2, 1 mM EGTA, 0.02% Brij35, 0.02 mg/ml BSA, 0.1 mM Na3VO4, 2 mM DTT, 1% DMSO
*Required cofactors are added individually to each kinase reaction
(i) Prepare indicated substrate in freshly prepared Base Reaction Buffer
(ii) Deliver any required cofactors to the substrate solution above
(iii) Deliver indicated kinase into the substrate solution and gently mix
(iv) Deliver compounds in DMSO into the kinase reaction mixture
(v) Deliver ^33P-ATP (specific activity 0.01 μCi/μl final) into the reaction mixture to initiate the reaction.
(vi) Incubate kinase reaction for 120 minutes at room temperature
(vii) Reactions are spotted onto P81 ion exchange paper (Whatman #3698-915)
(viii) Wash filters extensively in 0.1% phosphoric acid.
(ix) Dry filters and measure counts in scintillation counter
Recombinant full length construct, N-terminal GST tagged, purified from insect cells.
No special measures were taken to activate this kinase.
Final concentration in assay=0.5 nM
Peptide sequence: [[…]]
Final concentration in assay=20 μM
No additional cofactors are added to the reaction mixture

[5] = Chk-1 kinase, Table 3, read-out: IC50
[6] = ranges given, read-out: IC50 values against Chk-1 kinase

Chain of Chk-1 kinase (O14757 whole entry): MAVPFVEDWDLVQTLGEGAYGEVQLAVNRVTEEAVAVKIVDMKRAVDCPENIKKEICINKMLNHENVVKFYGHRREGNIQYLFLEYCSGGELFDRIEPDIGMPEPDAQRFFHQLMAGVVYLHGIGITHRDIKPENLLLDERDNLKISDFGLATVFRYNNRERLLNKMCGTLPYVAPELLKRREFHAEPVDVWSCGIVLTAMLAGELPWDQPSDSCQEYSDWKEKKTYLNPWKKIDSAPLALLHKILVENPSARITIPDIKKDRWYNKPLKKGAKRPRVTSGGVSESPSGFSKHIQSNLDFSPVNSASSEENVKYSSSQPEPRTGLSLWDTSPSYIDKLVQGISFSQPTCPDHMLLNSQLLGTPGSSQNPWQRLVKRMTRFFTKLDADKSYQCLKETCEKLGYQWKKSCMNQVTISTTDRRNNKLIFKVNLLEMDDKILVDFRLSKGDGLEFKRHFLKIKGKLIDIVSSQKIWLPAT

Row | Structure (SMILES) | IC50 [1] | fold shift in the IC50 value of SN38 ([2]; test compound at 1 μM) | fold shift in the IC50 value of SN38 ([2]; test compound at 3 μM) | IC50 [3] | IC50 [4, 5] | IC50 [4, 6]
1 | COc1cc(CCNCc2ccc(F)cc2)c(Cl)cc1NC(=O)Nc1cnc(C#N)cn1 [Example 37, 1-{5-Chloro-4-[2-(4-fluoro-benzylamino)-ethyl]-2-methoxy-phenyl}-3-(5-cyano-pyrazin-2-yl)-urea hydrochloride] | 570 nM | two | greater than ten | 1000 nM | 1.6 nM | < 10 nM
2 | COc1cc(OCCNCc2ccc(F)cc2F)ccc1NC(=O)Nc1cnc(C#N)cn1 [Example 33, 1-(5-Cyano-pyrazin-2-yl)-3-{4-[2-(2,4-difluoro-benzylamino)-ethoxy]-2-methoxy-phenyl}-urea] | 1300 nM |  | three | 1290 nM | 3 nM | < 10 nM
3 | COc1cc(CCNCc2ccc(N3CCN(C)CC3)cc2)c(Cl)cc1NC(=O)Nc1cnc(C#N)cn1 [Example 50, 1-(5-Chloro-2-methoxy-4-{2-[4-(4-methyl-piperazin-1-yl)-benzylamino]-ethyl}-phenyl)-3-(5-cyano-pyrazin-2-yl)-urea hydrochloride] | 70 nM | two |  | 310 nM | 0.45 nM | < 10 nM
4 | COc1cccc(CNCCc2cc(OC)c(NC(=O)Nc3cnc(C#N)cn3)cc2Cl)c1 [Example 48, 1-{5-Chloro-2-methoxy-4-[2-(3-methoxy-benzylamino)-ethyl]-phenyl}-3-(5-cyano-pyrazin-2-yl)-urea hydrochloride] | 100 nM | two | greater than ten | 190 nM | 0.47 nM | < 10 nM
5 | COc1cc(CNCc2ccccc2)ccc1NC(=O)Nc1cnc(C#N)cn1 [Example 22, 1-[4-(Benzylamino-methyl)-2-methoxy-phenyl]-3-(5-cyano-pyrazin-2-yl)-urea] | > 3000 nM |  | three; also recorded: greater than ten | > 3000 nM | 99 nM | 10 to 100 nM
6 | COc1cc(CCN[C@@H](C)c2ccc(F)cc2)ccc1NC(=O)Nc1cnc(C#N)cn1 [Example 44, 1-(5-Cyano-pyrazin-2-yl)-3-(4-{2-[(S)-1-(4-fluoro-phenyl)-ethylamino]-ethyl}-2-methoxy-phenyl)-urea] | 850 nM |  |  | 960 nM | 5.1 nM | < 10 nM
7 | CN1CCN(c2cccc(CNCCc3ccc(NC(=O)Nc4cnc(C#N)cn4)cc3Cl)c2)CC1 [Example 38, 1-(3-Chloro-4-{2-[3-(4-methyl-piperazin-1-yl)-benzylamino]-ethyl}-phenyl)-3-(5-cyano-pyrazin-2-yl)-urea] | 610 nM |  | three | 2440 nM | 9.1 nM | < 10 nM
8 | COc1ccc(CNCCc2cc(OC)c(NC(=O)Nc3cnc(C#N)cn3)cc2Cl)cc1 [Example 49, 1-{5-Chloro-2-methoxy-4-[2-(4-methoxy-benzylamino)-ethyl]-phenyl}-3-(5-cyano-pyrazin-2-yl)-urea hydrochloride] | 60 nM | two | greater than ten | 120 nM | 0.28 nM | < 10 nM
9 | COc1cc(CCNCc2ccc(F)cc2)ccc1NC(=O)Nc1cnc(C#N)cn1 [Example 20, 1-(5-Cyano-pyrazin-2-yl)-3-{4-[2-(4-fluoro-benzylamino)-ethyl]-2-methoxy-phenyl}-urea] | 500 nM |  | three; also recorded: greater than ten | 810 nM | 2.8 nM | < 10 nM
10 | COc1cc(OCCNCc2ccc(F)cc2)ccc1NC(=O)Nc1cnc(C#N)cn1 [Example 21, 1-(5-Cyano-pyrazin-2-yl)-3-{4-[2-(4-fluorobenzylamino)-ethoxy]-2-methoxy-phenyl}-urea] | 1300 nM |  |  | 1290 nM | 4.1 nM | < 10 nM
11 | COc1cc(CCNCc2ccc(N3CCN(C)CC3)cc2)ccc1NC(=O)Nc1cnc(C#N)cn1 [Example 51, 1-(5-Cyano-pyrazin-2-yl)-3-(2-methoxy-4-{2-[4-(4-methyl-piperazin-1-yl)-benzylamino]-ethyl}-phenyl)-urea] | 240 nM |  |  | 860 nM | 3.3 nM | < 10 nM
12 | CN1CCN(c2ccc(CNCCc3ccc(NC(=O)Nc4cnc(C#N)cn4)cc3Cl)cc2)CC1 [Example 35, 1-(3-Chloro-4-{2-[4-(4-methyl-piperazin-1-yl)-benzylamino]-ethyl}-phenyl)-3-(5-cyano-pyrazin-2-yl)-urea] | 1300 nM | two |  | 3900 nM | 1.4 nM | < 10 nM
13 | N#Cc1cnc(NC(=O)Nc2ccc(CCNCc3ccc(N4CCOCC4)cc3)c(Cl)c2)cn1 [Example 25, 1-{3-Chloro-4-[2-(4-morpholin-4-yl-benzylamino)-ethyl]-phenyl}-3-(5-cyano-pyrazin-2-yl)-urea] | 1790 nM |  |  | 1710 nM | 18 nM | 10 to 100 nM
14 | COc1cc(CCNCc2ccc3c(c2)OCO3)c(Cl)cc1NC(=O)Nc1cnc(C#N)cn1 [Example 54, 1-(4-{2-[(Benzo[1,3]-dioxol-5-ylmethyl)-amino]-ethyl}-5-chloro-2-methoxy-phenyl)-3-(5-cyano-pyrazin-2-yl)-urea hydrochloride] | 14 nM |  |  | 52 nM |  | < 10 nM
15 | COc1ccccc1CNCCc1cc(OC)c(NC(=O)Nc2cnc(C#N)cn2)cc1Cl [Example 55, 1-{5-Chloro-2-methoxy-4-[2-(2-methoxy-benzylamino)-ethyl]-phenyl}-3-(5-cyano-pyrazin-2-yl)-urea hydrochloride] | 34 nM |  |  | 254 nM | 0.48 nM | < 10 nM
16 | COc1ccc([C@H](C)NCCc2cc(OC)c(NC(=O)Nc3cnc(C#N)cn3)cc2Cl)cc1 [Example 53, 1-(5-Chloro-2-methoxy-4-{2-[(S)-1-(4-methoxy-phenyl)-ethylamino]-ethyl}-phenyl)-3-(5-cyano-pyrazin-2-yl)-urea hydrochloride] | 30 nM |  |  | 288 nM | 0.56 nM | < 10 nM
